Assay results published in patent publication US20240199587A1, “HETEROCYCLIC COMPOUNDS” (Hoffmann-La Roche Inc., priority 2021, published 2024).

Each molecule was assayed against T1, MAGL (Homo sapiens, UniProt Q99685) (assay: 2-AG assay (MAGL inhibitory activity, hydrolysis of 2-arachidonoylglycerol to arachidonic acid followed by mass spectrometry)). Conditions: 8 μM 2-arachidonoylglycerol, 15 min pre-incubation, 30 min incubation at RT, RapidFire MS readout.
T1 sequence (Q99685 1-303): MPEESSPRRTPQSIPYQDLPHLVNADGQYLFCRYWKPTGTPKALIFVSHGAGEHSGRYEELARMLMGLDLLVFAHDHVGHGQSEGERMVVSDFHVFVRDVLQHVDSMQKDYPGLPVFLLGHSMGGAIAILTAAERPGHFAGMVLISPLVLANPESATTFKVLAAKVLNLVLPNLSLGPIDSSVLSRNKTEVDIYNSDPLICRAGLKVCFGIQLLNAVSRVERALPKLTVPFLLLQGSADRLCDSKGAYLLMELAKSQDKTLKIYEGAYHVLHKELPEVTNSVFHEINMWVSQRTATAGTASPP
Type: biochemical
In short: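 Arachidonic acid released from 8 μM 2-arachidonoylglycerol was quantified by online SPE triple-quadrupole MS (negative ESI, 303.1→259.1), normalised to d8-arachidonic acid internal standard. Reaction ran 30 min at RT after 15 min RT compound pre-incubation with […] MAGL in TRIS/EDTA/Tween-20 buffer, 2.5% DMSO.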

| SMILES | IC50 |
| --- | --- |
| O=C(N1CC2(CC(Oc3cnc(C(F)(F)F)cn3)C2)C1)N1CC2(CC(n3cnc(C4CC4)n3)C2)C1 [Example 70, [6-(3-cyclopropyl-1,2,4-triazol-1-yl)-2-azaspiro[3.3]heptan-2-yl]-[6-[5-(trifluoromethyl)pyrazin-2-yl]oxy-2-azaspiro[3.3]heptan-2-yl]methanone] | 2.1 nM |
| O=C(N1CC2(CC(n3cnc(C4CC4)n3)C2)C1)N1CC2(C1)CN(S(=O)(=O)C1CS(=O)(=O)C1)C2 [Example 339, [6-(3-cyclopropyl-1,2,4-triazol-1-yl)-2-azaspiro[3.3]heptan-2-yl]-[2-(1,1-dioxothietan-3-yl)sulfonyl-2,6-diazaspiro[3.3]heptan-6-yl]methanone] | 3010 nM |
| O=C(N1CC(C23CC(NCC4(C(F)(F)F)CC4)(C2)C3)C1)N1CC2(CC(n3cnc(C4(O)CC4)n3)C2)C1 [Example 395, [6-[3-(1-hydroxycyclopropyl)-1,2,4-triazol-1-yl]-2-azaspiro[3.3]heptan-2-yl]-[3-[3-[[1-(trifluoromethyl)cyclopropyl]methylamino]-1-bicyclo[1.1.1]pentanyl]azetidin-1-yl]methanone] | 14.7 nM |
| COc1cc(O[C@H]2C[C@@H]3CN(C(=O)N4CC5(CC(n6cnc(C7CC7)n6)C5)C4)C[C@@H]3C2)ccc1F [Example 131, [6-(3-cyclopropyl-1,2,4-triazol-1-yl)-2-azaspiro[3.3]heptan-2-yl]-[rac-(3aS,6aR)-5-(4-fluoro-3-methoxy-phenoxy)-3,3a,4,5,6,6a-hexahydro-1H-cyclopenta[c]pyrrol-2-yl]methanone] | 5.9 nM |
| O=C(N1CC2(CCN(Cc3ccc(C(F)(F)F)nc3)CC2)C1)N1CC2(CC(n3cnc(C4CC4)n3)C2)C1 [Example 464, [6-(3-cyclopropyl-1,2,4-triazol-1-yl)-2-azaspiro[3.3]heptan-2-yl]-[7-[[6-(trifluoromethyl)-3-pyridyl]methyl]-2,7-diazaspiro[3.5]nonan-2-yl]methanone] | 5.05 nM |
| O=C(N1CC2(CC(n3cnc(C4CC4)n3)C2)C1)N1CC2(C1)CN(S(=O)(=O)c1cccnc1C(F)(F)F)C2 [Example 297, [6-(3-cyclopropyl-1,2,4-triazol-1-yl)-2-azaspiro[3.3]heptan-2-yl]-[2-[[2-(trifluoromethyl)-3-pyridyl]sulfonyl]-2,6-diazaspiro[3.3]heptan-6-yl]methanone] | 94.4 nM |
| O=C(N1CC(OCc2ccc(S(F)(F)(F)(F)F)cc2)C1)N1CC2(CC(n3cnc(C(F)(F)F)c3)C2)C1 [Example 307, [3-[[4-(pentafluoro-λ^6-sulfanyl)phenyl]methoxy]azetidin-1-yl]-[6-[4-(trifluoromethyl)imidazol-1-yl]-2-azaspiro[3.3]heptan-2-yl]methanone] | 136 nM |
| O=C(N1CC2(CCC(Cc3ccc(OC(F)F)nc3)CC2)C1)N1CC2(CC(c3ccc(C(F)(F)F)nc3)C2)C1 [Example 521, [7-[[6-(difluoromethoxy)-3-pyridyl]methyl]-2-azaspiro[3.5]nonan-2-yl]-[6-[6-(trifluoromethyl)-3-pyridyl]-2-azaspiro[3.3]heptan-2-yl]methanone] | 379 nM |
| CS(=O)(=O)c1ccc(CC2CC3(C2)CN(C(=O)N2CC4(CC(n5cnc(C6(O)CC6)n5)C4)C2)C3)cc1 [Example 491, [6-[3-(1-hydroxycyclopropyl)-1,2,4-triazol-1-yl]-2-azaspiro[3.3]heptan-2-yl]-[6-[(4-methylsulfonylphenyl)methyl]-2-azaspiro[3.3]heptan-2-yl]methanone] | 6.78 nM |
| O=C(N1CC2(CC(Cc3ccc(F)cn3)C2)C1)N1CC2(CC(n3cnc(C4(O)CC4)n3)C2)C1 [Example 390, [6-[(5-fluoro-2-pyridyl)methyl]-2-azaspiro[3.3]heptan-2-yl]-[6-[3-(1-hydroxycyclopropyl)-1,2,4-triazol-1-yl]-2-azaspiro[3.3]heptan-2-yl]methanone] | 30.1 nM |
| CP(C)(=O)c1ccc(CC2CC3(C2)CN(C(=O)N2CC4(CC(n5cnc(C(F)(F)F)n5)C4)C2)C3)cc1 [Example 375, [6-[(4-dimethyl-phosphorylphenyl)methyl]-2-azaspiro[3.3]heptan-2-yl]-[6-[3-(trifluoromethyl)-1,2,4-triazol-1-yl]-2-azaspiro[3.3]heptan-2-yl]methanone] | 12.7 nM |

Stronger by IC50, values ahead:

| IC50 | SMILES |
| --- | --- |
| 1.8 nM | O=C(N1CC2(CC(Oc3cncc(C(F)(F)F)c3)C2)C1)N1CC2(CC(n3cnc(C4CC4)n3)C2)C1 [Example 81, (6-(3-cyclopropyl-1H-1,2,4-triazol-1-yl)-2-azaspiro[3.3]heptan-2-yl)(6-((5-(trifluoromethyl)pyridin-3-yl)oxy)-2-azaspiro[3.3]heptan-2-yl)methanone] |
| 1.79 nM | CS(=N)(=O)c1cccc(CC2CC3(C2)CN(C(=O)N2CC4(CC(n5cnc(C6CC6)n5)C4)C2)C3)c1 (stereo not shown) [Example 461, [6-(3-cyclopropyl-1,2,4-triazol-1-yl)-2-azaspiro[3.3]heptan-2-yl]-[6-[[3-(methylsulfonimidoyl)phenyl]methyl]-2-azaspiro[3.3]heptan-2-yl]methanone] |
| 1.2 nM | O=C(N1CC2(CC(n3cnc(C4CC4)n3)C2)C1)N1CC2(C1)CN(S(=O)(=O)c1cccc(C(F)(F)F)c1)C2 [Example 209, [6-(3-cyclopropyl-1,2,4-triazol-1-yl)-2-azaspiro[3.3]heptan-2-yl]-[2-[3-(trifluoromethyl)phenyl]sulfonyl-2,6-diazaspiro[3.3]heptan-6-yl]methanone] |
| 0.7 nM | O=C(N1CC(Oc2ccc(C(F)(F)F)cc2)C1)N1CC2(CC(n3cnc(C4CC4)n3)C2)C1 [Example 202, [6-(3-cyclopropyl-1,2,4-triazol-1-yl)-2-azaspiro[3.3]heptan-2-yl]-[3-[4-(trifluoromethyl)phenoxy]azetidin-1-yl]methanone] |
| 0.53 nM | O=C(N1CC(c2ccc(N3CC[C@@H](C(F)(F)F)C3)nc2)C1)N1CC2(CC(n3cnc(C(F)(F)F)n3)C2)C1 [Example 427, [3-[6-[(3R)-3-(trifluoromethyl)pyrrolidin-1-yl]-3-pyridyl]azetidin-1-yl]-[6-[3-(trifluoromethyl)-1,2,4-triazol-1-yl]-2-azaspiro[3.3]heptan-2-yl]methanone] |
| 0.2 nM | O=C(N1CC2(CC(n3cnc(C4CC4)n3)C2)C1)N1CC2(CN(Cc3ccc(C(F)(F)F)cc3F)C2)C1 [Example 189, [6-(3-cyclopropyl-1,2,4-triazol-1-yl)-2-azaspiro[3.3]heptan-2-yl]-[6-[[2-fluoro-4-(trifluoromethyl)phenyl]methyl]-2,6-diazaspiro[3.3]heptan-2-yl]methanone] |
| 0.16 nM | CS(=O)(=O)c1ccc(CC2CC3(C2)CN(C(=O)N2CC4(CC(n5cnc(C6CC6)n5)C4)C2)C3)c(F)c1 [Example 483, [6-(3-cyclopropyl-1,2,4-triazol-1-yl)-2-azaspiro[3.3]heptan-2-yl]-[6-[(2-fluoro-4-methylsulfonyl-phenyl)methyl]-2-azaspiro[3.3]heptan-2-yl]methanone] |
| 0.03 nM | COc1cc(C(F)(F)F)ccc1CC1CC2(C1)CN(C(=O)N1CC3(CC(n4cnc(C5CC5)n4)C3)C1)C2 [Example 40, [6-(3-cyclopropyl-1,2,4-triazol-1-yl)-2-azaspiro[3.3]heptan-2-yl]−[6-[[2-methoxy-4-(trifluoromethyl)phenyl]methyl]-2-azaspiro[3.3]heptan-2-yl]methanone] |
